{
  "source": "patent US9814736B2",
  "about": "“Use of 2-methylene-19-nor-(20S)-1α,25-dihydroxyvitamin D3 and calcimimetics to treat secondary hyperparathyroidism” (Wisconsin Alumni Research Foundation, priority 2014, dated 2017)",
  "key": {"[1]": {"system": "cultured bovine parathyroid cells", "conditions": "cited from earlier work"}, "serum PTH [2]": {"system": "serum PTH", "conditions": "uremic dogs; cited from earlier work"}, "serum PTH [3]": {"system": "serum PTH", "conditions": "uremic rats; cited from earlier work"}, "PTH [4]": {"system": "PTH", "experiment": "Phase 2A open-label dose-ranging study of DP001 in hemodialysis patients", "type": "in vivo, human", "conditions": "dialysis patients, orally 3 times weekly for 4 weeks", "method": "FIG. 1. Change in plasma iPTH (%) versus concentration of DP001 (2MD). Chronic kidney disease—stage 5 patients were given DP001 at the indicated dose orally 3 times weekly for 4 weeks. Data are presented as mean±SEM. Plasma iPTH levels were measured using the Immulite Intact iPTH Assay from Siemens Healthcare Diagnostics.\nFIG. 2. Safety parameter versus concentration of DP001 (2MD) for patients of FIG. 1. Data are presented as mean (standard deviation (SD)).\nA Phase 2A, open-label, dose-ranging study of DP001 in hemodialysis patients was conducted to determine a starting dose of DP001 for the Phase 2B, randomized, placebo-controlled study described in this Example. […] (See FIGS. 1 and 2). Based on the results in FIGS. 1 and 2, an efficacious and safe starting dose of 440 ng was chosen. Data are presented as mean±SEM. Plasma iPTH levels were measured using the Immulite Intact iPTH Assay from Siemens Healthcare Diagnostics."}, "[5]": {"experiment": "Phase 2B double-blind, randomized, placebo-controlled study in hemodialysis patients: safety", "type": "in vivo, human", "method": "FIG. 9. Study enrollees exceeding safety threshold values for iPTH, Ca, and P.\nFIG. 10. Number of adverse events (AEs) and serious adverse events (SAEs) for study enrollees.\n(§1) Subjects were administered DP001 (2MD) or placebo accordingly the study schema of FIG. 3. Subject disposition is illustrated in FIG. 4. As indicated, 129 subject were screened. Of these, 62 were enrolled and 67 were screen failures. Of the 62 enrollees, 28 were administered a placebo and 34 were administered DP001 (440 ng, 3×/wk for up to 12 weeks). Of the 28 enrollees who were administered the placebo, 22 completed the 12 week study and 6 discontinued for reasons illustrated. Of the 34 enrollees who were administered DP001, 31 completed the 12 week study and 3 discontinued for reasons illustrated.\nThe remaining 8 subjects were only dose-adjusted downward, indicating a starting dose lower than 440 ng would have been sufficient to suppress PTH. […] Only one patient receiving DP001 (2MD) had two consecutive corrected serum calcium values>10.5 mg/dL."}, "PTH [6]": {"system": "PTH", "experiment": "Phase 2B double-blind, randomized, placebo-controlled study in hemodialysis patients: efficacy (serum iPTH)", "type": "in vivo, human", "method": "FIG. 3. Study schema for study participants. Participants discontinued use of the active vitamin D analogue (AVD) and cinacalcet (if applicable) prior to a washout period and subsequent administration of placebo or DP001 (440 ng, 3×/wk, for up to 12 weeks).\nFIG. 6. Percentage of subjects achieving primary endpoint of two consecutive ≧30% decrease from his/her averaged baseline iPHT level during the 12-week treatment period. Pre-dialysis serum iPTH levels were measured using the Access Intact iPTH Assay from Beckman Coulter (p<0.0001, Fisher's exact test).\nFIG. 7. Secondary efficacy endpoint as measured as the mean percentage change in serum iPTH from the averaged baseline value to the average of the last 2 on-treatment values. Data are presented as mean±SEM. p<0.0001, One-way ANOVA.\nas §1\nThe Primary Efficacy Endpoint was the proportion of subjects who achieved two consecutive ≧30% decrease from his/her Averaged Baseline iPTH level during the 12-week treatment period. (See FIG. 6). Pre-dialysis serum iPTH levels were measured using the Access Intact iPTH Assay from Beckman Coulter (p<0.0001, Fisher's exact test).\nThe secondary efficacy endpoint was the mean percentage change in serum iPTH from the Averaged Baseline value to the average of the last 2 on-treatment values. Data are presented in FIG. 7 as mean±SEM. p<0.0001, One-way ANOVA."}, "[7]": {"system": "MRL/lpr mouse model of systemic lupus erythematosus", "conditions": "cited from earlier work"}},
  "note": "“Also recorded” adds a separate entry of the source. Read-outs that look alike come from different tables or passages of the source.",
  "data": [
    {"smiles": "C=C1/C(=C\\C=C2/CCC[C@]3(C)C([C@H](C)CC#CC(C)(C)O)=CC[C@@H]23)C[C@@H](O)C[C@@H]1O", "note": "[1,25-(OH)2-16-ene-23-yne-D3]", "values": [
      {"measurement": "suppression of PTH secretion relative to calcitriol", "setting": "[1]", "result": "nearly as effective as calcitriol"}
    ]},
    {"smiles": "C=C1C(=CC=C2CCCC3(C)C2CCC3C(C)CCCCCC(C)(C)O)CC(O)CC1O", "note": "(stereo not shown) [1,25-(OH)2-24-dihomo-D3]", "values": [
      {"measurement": "suppression of PTH secretion relative to calcitriol", "setting": "[1]", "result": "nearly as effective as calcitriol"}
    ]},
    {"smiles": "C=C1C(=CC=C2CCCC3(C)C2CCC3C(C)C=CCCCCC(C)(C)O)CC(O)CC1O", "note": "(stereo not shown) [1,25-(OH)2-24-trihomo-22-ene-D3]", "values": [
      {"measurement": "suppression of PTH secretion relative to calcitriol", "setting": "[1]", "result": "nearly as effective as calcitriol"}
    ]},
    {"smiles": "C=C1/C(=C\\C=C2/CCC[C@]3(C)[C@@H]([C@H](C)OCCC(C)(C)O)CC[C@@H]23)C[C@@H](O)C[C@@H]1O", "note": "[22-oxacalcitriol]", "values": [
      {"measurement": "suppression of serum PTH", "setting": "serum PTH [2]", "result": "suppress serum PTH"},
      {"measurement": "suppression of PTH secretion relative to calcitriol", "setting": "[1]", "result": "nearly as effective as calcitriol"},
      {"measurement": "suppression of serum PTH", "setting": "serum PTH [3]", "result": "suppress serum PTH"}
    ]},
    {"smiles": "C=C1[C@H](O)CC(=C/C=C2\\CCC[C@@]3(C)C2CCC3[C@@H](C)CCCC(C)(C)O)C[C@H]1O", "note": "(stereo partly drawn) [DP001, 2-methylene-19-nor-(20S)-1α,25-dihydroxyvitamin D3]", "values": [
      {"measurement": "change in serum calcium", "setting": "PTH [4]", "result": "without changing serum calcium"},
      {"measurement": "suppression of PTH (plasma iPTH)", "setting": "PTH [4]", "result": "suppresses PTH in dialysis patients in a dose-dependent fashion"},
      {"measurement": "serum calcium values", "setting": "[5]; 12-week treatment", "result": "remained in the normal range"},
      {"measurement": "patients with two consecutive corrected serum calcium values >10.5 mg/dL", "setting": "[5]; 34 enrollees on DP001", "result": "one"},
      {"measurement": "subjects that reached the safety threshold for PTH", "setting": "[5]; 34 enrollees on DP001, 440 ng 3x/wk up to 12 weeks", "result": 14, "unit": "subjects"},
      {"measurement": "adverse event reporting versus placebo", "setting": "[5]; between treatment groups", "result": "no significant differences in adverse event reporting between treatment groups"},
      {"measurement": "patients surpassing corrected-serum calcium and phosphorus product safety threshold", "setting": "[5]; both had high serum phosphorus at baseline", "result": "two"},
      {"measurement": "serious adverse events (SAEs) related to drug", "setting": "[5]; judged by investigators", "result": "No serious adverse events (SAEs) were judged by the investigators to be related to DP001"},
      {"measurement": "subjects achieving primary endpoint (two consecutive ≧30% decrease from averaged baseline iPTH)", "setting": "PTH [6]; CKD-5D, 3x weekly oral, starting dose 440 ng, 12-week treatment, p<0.0001", "result": "78 % of subjects"},
      {"measurement": "reduction of serum iPTH (secondary endpoint: mean percentage change from averaged baseline)", "setting": "PTH [6]; CKD-5D, 3x weekly oral, starting dose 440 ng, by 12 weeks, p<0.0001", "result": 46, "unit": "%"},
      {"measurement": "PTH lowering in subjects previously treated with AVD and cinacalcet (calcimimetic)", "setting": "PTH [6]; DP001 alone, CKD-5D patients previously on cinacalcet", "result": "effectively reduced PTH levels; also recorded: successfully treats SHPT in patients previously taking a calcimimetic"}
    ]},
    {"smiles": "C=C1/C(=C\\C=C2/CCC[C@]3(C)[C@@H]([C@H](C)CCCC(C)(C)O)CC[C@@H]23)C[C@@H](O)C[C@@H]1O", "note": "[calcitriol, 1α,25-(OH)2D3]", "values": [
      {"measurement": "hypercalcemia", "setting": "[7]; accompanying calcitriol treatment", "result": "severe hypercalcemia always accompanied this treatment"},
      {"measurement": "proteinuria", "setting": "[7]; calcitriol administered through the diet", "result": "completely prevents proteinuria"}
    ]}
  ]
}
